How the values were obtained:
Assay type in all cases: cell-based
[1] = target: T1, homotetrameric HCN2 channels (Mus musculus, UniProt O88703); experiment: Concentration-activation relationship of homotetrameric HCN2 channels, inside-out patches of Xenopus oocytes; conditions: for H (Hill coefficient) / EC50: homotetrameric HCN2 channels, mean; for EC50: pre-activation at -130 mV, instantaneous current at -100 mV
T1 construct: expressed in transfected cells; host or cells: Xenopus laevis oocytes injected with cRNA; inside-out patches
T1 sequence (O88703 1-863): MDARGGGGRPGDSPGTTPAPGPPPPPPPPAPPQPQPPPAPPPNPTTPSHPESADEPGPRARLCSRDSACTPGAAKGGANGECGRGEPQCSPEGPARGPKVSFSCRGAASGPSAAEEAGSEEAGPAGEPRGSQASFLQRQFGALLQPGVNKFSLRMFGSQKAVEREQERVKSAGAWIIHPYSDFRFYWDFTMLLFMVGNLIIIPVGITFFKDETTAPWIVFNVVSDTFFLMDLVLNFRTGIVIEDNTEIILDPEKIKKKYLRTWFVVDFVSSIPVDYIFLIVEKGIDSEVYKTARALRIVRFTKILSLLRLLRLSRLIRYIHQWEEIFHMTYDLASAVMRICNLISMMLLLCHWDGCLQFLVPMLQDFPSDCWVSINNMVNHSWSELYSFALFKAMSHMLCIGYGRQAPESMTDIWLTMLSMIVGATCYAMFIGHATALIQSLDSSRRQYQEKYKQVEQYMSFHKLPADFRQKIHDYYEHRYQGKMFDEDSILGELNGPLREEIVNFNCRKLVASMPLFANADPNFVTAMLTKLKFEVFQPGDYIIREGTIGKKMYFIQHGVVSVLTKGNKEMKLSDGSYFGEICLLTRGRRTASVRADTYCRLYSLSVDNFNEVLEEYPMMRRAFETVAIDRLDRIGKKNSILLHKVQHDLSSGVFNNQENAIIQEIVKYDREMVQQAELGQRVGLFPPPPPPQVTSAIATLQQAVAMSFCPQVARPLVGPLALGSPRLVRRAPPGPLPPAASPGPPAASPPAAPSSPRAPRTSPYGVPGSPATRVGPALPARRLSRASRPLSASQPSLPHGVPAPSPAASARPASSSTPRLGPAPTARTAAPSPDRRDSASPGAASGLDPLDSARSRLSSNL
Method: (§1) The subunits CNGA2 (accession No. AF126808), CNGA4 (accession No. U12623) and CNGB1b (accession No. AF068572) of rat olfactory channels as well as mouse HCN2 channels (NM008226) were subcloned in front of the T7 promoter of pGEMHEnew. The respective cRNAs were produced by using the mMESSAGE mMACHINE T7 Kit (Ambion, Austin, TX).
(§2) The oocytes were exposed to collagenase A (3 mg/ml; Roche, Grenzach-Wyhlen, Germany) for 105 min in Ca^2+-free Barth’s solution containing (in mM) 82.5 NaCl, 2 KCl, 1 MgCl2 2, and 5 Hepes, pH 7.4. Oocytes at stages IV and V were injected with 50–130 ng of cRNA encoding either CNGA2, CNGA2:CNGA4:CNGB1b (2:1:1 ratio) or HCN2 channels either manually of or by means of an injection robot (RoboInject®). The injected oocytes were incubated at 18 °C for up to 6 days in Barth’s solution containing (in mM) 84 NaCl, 1 KCl, 2.4 NaHCO3, 0.82 MgSO4, 0.41 CaCl2, 0.33 Ca(NO3)2, 7.5 TRIS, cefuroxime (4.0 µg × ml^−1), and penicillin/streptomycin (100 µg × ml^−1), pH 7.4.
(§3) Macroscopic currents were recorded from inside-out patches of the oocytes by using standard patch-clamp techniques. The patch pipettes were pulled from quartz tubing (P-2000, Sutter Instrument, Novato, USA) with an outer and inner diameter of 1.0 and 0.7 mm (VITROCOM, New Jersey, USA). The corresponding pipette resistance was 0.9–2.3 MΩ. The bath and pipette solution contained (in mM): 150 KCl, 1 EGTA, 5 Hepes (pH 7.4 with KOH) for CNG measurements. For HCN measurements the bath solution contained 100 mM KCl, 10 mM EGTA, 10 mM HEPES (pH 7.2) and 120 mM KCl, 10 mM HEPES, and 1.0 mM CaCl2 (pH 7.2) in the pipette. Recording was carried out at room temperature using an Axopatch 200B amplifier (Axon Instruments, Foster City, CA). Electrophysiology was controlled by the Patchmaster-software (HEKA Elektronik Dr. Schulze GmbH, Lambrecht, Germany). The sampling rate was 5 kHz and the filter implemented in the amplifier (4-pole Bessel) was set to 2 kHz. Measurements in HCN2 channels were generally started 3.5 min after patch excision to minimize channel run down during the measurement[14],[27],[70]. The solutions with the ligand concentrations to be tested were applied via a multi-barrel device to the patches with a flow rate of 0.8 to 1.2 ml/min.
(§4) I is the actual current amplitude and Imax the maximum current amplitude at a saturating cNMP concentration specified for each cNMP and channel. EC50 is the cNMP concentration generating the half maximum current and H the Hill coefficient.

[2] = target: T2, heterotetrameric CNGA2:CNGA4:CNGB1b channels (Rattus norvegicus, UniProt A0A8I5ZN27+Q00195+Q64359); experiment: Concentration-activation relationship of heterotetrameric CNGA2:CNGA4:CNGB1b channels, inside-out patches of Xenopus oocytes
T2 construct: expressed in transfected cells; host or cells: Xenopus laevis oocytes co-injected with cRNAs (2:1:1); inside-out patches
Method: (§5) For each cNMP derivative a complete concentration-activation relationship was recorded, and the data points were fitted with the Hill equation (equation 1) yielding the concentration of half maximum activation (EC50) and the Hill coefficient H (Fig. 1b,c).
as §1
as §2, with “Oocytes” for “The oocytes were exposed to collagenase A (3 mg/ml; Roche, Grenzach-Wyhlen, Germany) for 105 min in Ca^2+-free Barth’s solution containing (in mM) 82.5 NaCl, 2 KCl, 1 MgCl2 2, and 5 Hepes, pH 7.4. Oocytes”
as §3, §4

[3] = target: T3, homotetrameric CNGA2 channels (Rattus norvegicus, UniProt Q00195); experiment: Concentration-activation relationship of homotetrameric CNGA2 channels, inside-out patches of Xenopus oocytes
T3 construct: expressed in transfected cells; host or cells: Xenopus laevis oocytes injected with cRNA; inside-out patches
T3 sequence (Q00195 1-664): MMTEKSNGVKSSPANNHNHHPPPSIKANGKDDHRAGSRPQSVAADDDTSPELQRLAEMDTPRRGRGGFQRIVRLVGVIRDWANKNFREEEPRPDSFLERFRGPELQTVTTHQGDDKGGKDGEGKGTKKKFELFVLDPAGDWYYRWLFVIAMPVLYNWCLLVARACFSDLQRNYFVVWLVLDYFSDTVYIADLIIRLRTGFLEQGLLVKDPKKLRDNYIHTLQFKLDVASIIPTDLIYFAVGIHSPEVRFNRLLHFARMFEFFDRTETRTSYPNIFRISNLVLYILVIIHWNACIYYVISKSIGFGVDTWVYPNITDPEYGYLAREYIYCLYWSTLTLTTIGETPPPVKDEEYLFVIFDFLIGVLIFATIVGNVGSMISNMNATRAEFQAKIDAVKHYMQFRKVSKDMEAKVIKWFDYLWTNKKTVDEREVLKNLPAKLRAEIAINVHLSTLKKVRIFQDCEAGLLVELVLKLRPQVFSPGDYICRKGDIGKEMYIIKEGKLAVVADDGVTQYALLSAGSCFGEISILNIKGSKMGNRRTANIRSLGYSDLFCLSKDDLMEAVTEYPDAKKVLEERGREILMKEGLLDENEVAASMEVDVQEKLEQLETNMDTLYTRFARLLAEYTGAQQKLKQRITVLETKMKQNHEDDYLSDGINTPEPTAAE
Method: as §5, §1
as §2, with “Oocytes” for “The oocytes were exposed to collagenase A (3 mg/ml; Roche, Grenzach-Wyhlen, Germany) for 105 min in Ca^2+-free Barth’s solution containing (in mM) 82.5 NaCl, 2 KCl, 1 MgCl2 2, and 5 Hepes, pH 7.4. Oocytes”
as §3, §4

[4] = fit of the concentration-activation relationship shown in Fig. 1c, CNGA2:CNGA4:CNGB1b channels
[5] = heterotetrameric CNGA2:CNGA4:CNGB1b channels, late current at +10 mV, mean
[6] = heterotetrameric CNGA2:CNGA4:CNGB1b channels, mean
[7] = fit of the concentration-activation relationship shown in Fig. 1b, CNGA2 channels
[8] = homotetrameric CNGA2 channels, late current at +10 mV, mean
[9] = homotetrameric CNGA2 channels, mean
[10] = CNGA2 channels, numeric mean values of box plots (Fig. 2a,b, Fig. 3) and text

T2 sequence (Q64359 whole entry, one chain of several): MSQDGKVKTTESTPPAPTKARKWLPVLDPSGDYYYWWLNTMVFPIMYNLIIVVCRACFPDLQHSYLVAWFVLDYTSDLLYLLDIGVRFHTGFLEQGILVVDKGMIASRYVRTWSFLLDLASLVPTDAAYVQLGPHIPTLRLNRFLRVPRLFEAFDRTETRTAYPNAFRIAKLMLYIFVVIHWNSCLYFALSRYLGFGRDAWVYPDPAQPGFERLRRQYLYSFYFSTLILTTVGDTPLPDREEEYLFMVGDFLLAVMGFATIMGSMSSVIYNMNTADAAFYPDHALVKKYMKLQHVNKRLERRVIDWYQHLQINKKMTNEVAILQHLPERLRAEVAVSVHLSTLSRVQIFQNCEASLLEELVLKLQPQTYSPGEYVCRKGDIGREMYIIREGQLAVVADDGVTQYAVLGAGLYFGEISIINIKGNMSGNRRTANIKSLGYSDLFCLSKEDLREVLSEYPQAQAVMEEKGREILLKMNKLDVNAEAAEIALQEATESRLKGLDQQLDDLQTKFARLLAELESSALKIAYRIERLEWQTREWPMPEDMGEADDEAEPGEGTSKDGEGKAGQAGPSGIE
T2 sequence (A0A8I5ZN27 1-858 isoform A0A8I5ZN27-2, one chain of several): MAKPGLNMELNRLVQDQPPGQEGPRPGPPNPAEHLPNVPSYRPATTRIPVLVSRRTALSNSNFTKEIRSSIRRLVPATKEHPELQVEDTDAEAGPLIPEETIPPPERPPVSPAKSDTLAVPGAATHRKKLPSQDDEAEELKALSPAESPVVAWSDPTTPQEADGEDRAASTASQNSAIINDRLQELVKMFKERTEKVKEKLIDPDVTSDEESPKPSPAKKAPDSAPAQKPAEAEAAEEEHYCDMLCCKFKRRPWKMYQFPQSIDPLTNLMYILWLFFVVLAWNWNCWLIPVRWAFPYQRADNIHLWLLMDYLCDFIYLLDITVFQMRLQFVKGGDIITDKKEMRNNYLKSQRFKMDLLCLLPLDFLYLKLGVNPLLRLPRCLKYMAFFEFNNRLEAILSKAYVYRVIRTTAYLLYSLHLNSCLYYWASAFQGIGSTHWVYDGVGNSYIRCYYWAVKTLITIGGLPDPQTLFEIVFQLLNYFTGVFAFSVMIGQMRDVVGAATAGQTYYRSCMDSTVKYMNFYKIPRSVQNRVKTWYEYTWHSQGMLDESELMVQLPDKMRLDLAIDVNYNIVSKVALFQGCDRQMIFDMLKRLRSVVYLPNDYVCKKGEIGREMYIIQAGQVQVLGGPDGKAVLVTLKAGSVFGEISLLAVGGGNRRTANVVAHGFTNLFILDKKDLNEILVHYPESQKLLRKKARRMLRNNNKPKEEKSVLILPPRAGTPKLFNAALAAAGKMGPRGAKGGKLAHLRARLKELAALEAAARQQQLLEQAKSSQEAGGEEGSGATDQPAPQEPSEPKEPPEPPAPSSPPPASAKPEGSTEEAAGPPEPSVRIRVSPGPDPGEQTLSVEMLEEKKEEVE

Compound	EC50 [2, 5]	H (Hill coefficient) [2, 6]	EC50 [3, 8]	H (Hill coefficient) [3, 9]	also measured
Nc1ncnc2c1ncn2C1OC2COP(=O)(O)OC2C1O (stereo not shown) [1A, cAMP, reference compound]					H ([1]; individual experiment, Fig. 5b, HCN2 channels): 1.28
Nc1nc2c(ncn2C2OC3COP(=O)(O)OC3C2O)c(=O)[nH]1 (stereo not shown) [1G, cGMP, reference compound]	1300 nM	2.5	1800 nM	2.6	EC50 [2, 4]: 1240 nM; H [2, 4]: 2.09; EC50 [3, 7]: 1470 nM; H [3, 7]: 2.52
NCCSc1nc2c(N)ncnc2n1C1OC2COP(=O)(O)OC2C1O (stereo not shown) [2A, 8-AET-cAMP]	13300 nM			1.8	agonist type ([3]; CNGA2 channels): partial agonist; EC50 [3, 10]: 128000 nM
NCCSc1nc2c(=O)[nH]c(N)nc2n1C1OC2COP(=O)(O)OC2C1O (stereo not shown) [2G, 8-AET-cGMP]	1500 nM	1.8		2.4	EC50 [3, 10]: 830 nM
CC(=O)NCCSc1nc2c(N)ncnc2n1C1OC2COP(=O)(O)OC2C1O (stereo not shown) [3A, 8-(Ac)AET-cAMP]	4100 nM	1.8		2.3	EC50 [3, 10]: 9900 nM; H (Hill coefficient) [1]: 1.7; EC50 [1]: 70.6 nM
NCCCCCCSc1nc2c(N)ncnc2n1C1OC2COP(=O)(O)OC2C1O (stereo not shown) [4A, 8-AHT-cAMP]	1400 nM	2.5	3100 nM	2.3	
NCCCCCCSc1nc2c(=O)[nH]c(N)nc2n1C1OC2COP(=O)(O)OC2C1O (stereo not shown) [4G, 8-AHT-cGMP]	620 nM	1.3	90 nM	2.5	
CC(=O)NCCCCCCSc1nc2c(N)ncnc2n1C1OC2COP(=O)(O)OC2C1O (stereo not shown) [5A, 8-(Ac)AHT-cAMP]	950 nM	2.5	1400 nM	3.1	H (Hill coefficient) [1]: 0.8; EC50 [1]: 19.7 nM
NCCCCCCCCCCSc1nc2c(N)ncnc2n1C1OC2COP(=O)(O)OC2C1O (stereo not shown) [6A, 8-ADT-cAMP]	290 nM	3.9	630 nM	2.3	effect at high concentration ([2]; CNGA2:CNGA4:CNGB1b channels, at concentrations > 2 µM): unusual inhibition
NCCCCCCCCCCSc1nc2c(=O)[nH]c(N)nc2n1C1OC2COP(=O)(O)OC2C1O (stereo not shown) [6G, 8-ADT-cGMP]	300 nM	1.6	60 nM	1.8	
CC(=O)NCC(=O)NCC(=O)NCCSc1nc2c(N)ncnc2n1C1OC2COP(=O)(O)OC2C1O (stereo not shown) [11A, 8-(Ac)AGGET-cAMP]	5100 nM	2.5	29400 nM	1.9	EC50 [3, 10]: 29400 nM

Further lines, with some results ahead:

EC50 [2, 5]	H (Hill coefficient) [2, 6]	EC50 [3, 8]	H (Hill coefficient) [3, 9]	Compound	also measured
280 nM	2.0		1.8	CC(=O)NCCSc1nc2c(=O)[nH]c(N)nc2n1C1OC2COP(=O)(O)OC2C1O (stereo not shown) [3G, 8-(Ac)AET-cGMP]	EC50 [3, 10]: 170 nM
140 nM	1.9	50 nM	2.2	CC(=O)NCCCCCCCCCCSc1nc2c(=O)[nH]c(N)nc2n1C1OC2COP(=O)(O)OC2C1O (stereo not shown) [7G, 8-(Ac)ADT-cGMP]	
1100 nM	1.6	550 nM	2.7	CC(=O)NCCOCCOCCSc1nc2c(=O)[nH]c(N)nc2n1C1OC2COP(=O)(O)OC2C1O (stereo not shown) [8G, 8-(Ac)APT-cGMP]	
7100 nM	2.2	46200 nM	2.3	CC(=O)NCCOCCOCCC(=O)NCCSc1nc2c(N)ncnc2n1C1OC2COP(=O)(O)OC2C1O (stereo not shown) [9A, 8-(Ac)APET-cAMP]	
1100 nM	2.0	520 nM	2.3	CC(=O)NCCOCCOCCC(=O)NCCSc1nc2c(=O)[nH]c(N)nc2n1C1OC2COP(=O)(O)OC2C1O (stereo not shown) [9G, 8-(Ac)APET-cGMP]	
630 nM	1.9	340 nM	2.6	CC(=O)NCC(=O)NCCSc1nc2c(=O)[nH]c(N)nc2n1C1OC2COP(=O)(O)OC2C1O (stereo not shown) [10G, 8-(Ac)AGET-cGMP]	
1000 nM	1.7	330 nM	2.4	CC(=O)NCC(=O)NCC(=O)NCCSc1nc2c(=O)[nH]c(N)nc2n1C1OC2COP(=O)(O)OC2C1O (stereo not shown) [11G, 8-(Ac)AGGET-cGMP]	
